Measured values from paper PMC8689225, “Cardiac ryanodine receptor N-terminal region biosensors identify novel inhibitors via FRET-based high-throughput screening” (The Journal of Biological Chemistry, 2021).

How the values were obtained:
RyR1 [1] = biological target: T1, RyR1 (Rattus norvegicus, UniProt F1LMY4); experiment: t-tubule Ca2+ measurement of RyR1 leak in skinned skeletal muscle fibers; type: cell-based; settings: 10 μM FA or 1 mM tetracaine, [Ca2+]cyto 200 nM
T1 construct: from tissue; host or cells: Wistar rat extensor digitorum longus (EDL), mechanically skinned single fibres
Procedure: All experimental methods using rodents were approved by the Animal Ethics Committees at The University of Queensland and were performed in accordance with the relevant guidelines and regulations. Five-month-old Wistar rats (UQ Biological Resources) were euthanized by asphyxiation via CO2 exposure, and the extensor digitorum longus (EDL) was rapidly excised. Once dissected, muscles were pinned to Sylgard set in a Petri dish containing paraffin oil.
Bundles of fibers were isolated and exposed to an internal solution containing rhod-5N, as described previously ([47]). After 15 min incubation, single skeletal muscle fibers were mechanically skinned and mounted in a custom-made chamber. […] For tracking Ca^2+ movements across the t-system membrane, images were continuously recorded in xyt mode with an aspect ratio of 256 × 512, with the long aspect of the image parallel with that of the preparation. Temporal resolution of imaging in this mode where the fluorescence signal was within the borders of the fiber was 0.8 s.
T-system rhod-5N fluorescence was converted to [Ca^2+]t-sys as previously described ([47]). To determine the effect of RyR modulators on the RyR Ca^2+ leak, isolated mechanically skinned fibers were continuously imaged as described above, to obtain a record of t-system rhod-5N fluorescence changes over time as the cytoplasmic solution bathing the fiber was changed. […]

[2] = tested on: rat skeletal muscle fibers; experiment: Electrically evoked Ca2+ transients in skinned skeletal muscle fibers; type: cell-based; settings: 10 μM FA or 1 mM tetracaine, 1 Hz
Text: Mechanically skinned fibers were isolated, mounted in a custom chamber, and bathed in a resting physiological solution containing rhod-2, as previously described ([21]). The Ca^2+-sensitive dye rhod-2 was used to track cytosolic Ca^2+ transients when exposed to electrical stimulation. Field pulses at 1 Hz frequency and 4 ms in duration were applied across platinum electrodes parallel to the long axis of the fiber. Imaging for electrical stimulation experiments was in xt mode, at a rate of 2 ms.line^−1. DMSO vehicle (0.01%), FA (10 μM), and tetracaine were added to the physiological solution. Each treatment was applied precisely at the seventh successive Ca^2+ transient.

RyR1 [3] = biological target: T2, RyR1 (Sus scrofa, UniProt P16960); experiment: [3H]ryanodine binding to skeletal SR (HSR) vesicles; type: biochemical, pig; settings: for EC50: EC50, [3H]ryanodine binding, skeletal HSR, Table S4
T2 construct: from tissue; host or cells: porcine longissimus dorsi muscle, heavy SR vesicles
T2 sequence (P16960 whole entry): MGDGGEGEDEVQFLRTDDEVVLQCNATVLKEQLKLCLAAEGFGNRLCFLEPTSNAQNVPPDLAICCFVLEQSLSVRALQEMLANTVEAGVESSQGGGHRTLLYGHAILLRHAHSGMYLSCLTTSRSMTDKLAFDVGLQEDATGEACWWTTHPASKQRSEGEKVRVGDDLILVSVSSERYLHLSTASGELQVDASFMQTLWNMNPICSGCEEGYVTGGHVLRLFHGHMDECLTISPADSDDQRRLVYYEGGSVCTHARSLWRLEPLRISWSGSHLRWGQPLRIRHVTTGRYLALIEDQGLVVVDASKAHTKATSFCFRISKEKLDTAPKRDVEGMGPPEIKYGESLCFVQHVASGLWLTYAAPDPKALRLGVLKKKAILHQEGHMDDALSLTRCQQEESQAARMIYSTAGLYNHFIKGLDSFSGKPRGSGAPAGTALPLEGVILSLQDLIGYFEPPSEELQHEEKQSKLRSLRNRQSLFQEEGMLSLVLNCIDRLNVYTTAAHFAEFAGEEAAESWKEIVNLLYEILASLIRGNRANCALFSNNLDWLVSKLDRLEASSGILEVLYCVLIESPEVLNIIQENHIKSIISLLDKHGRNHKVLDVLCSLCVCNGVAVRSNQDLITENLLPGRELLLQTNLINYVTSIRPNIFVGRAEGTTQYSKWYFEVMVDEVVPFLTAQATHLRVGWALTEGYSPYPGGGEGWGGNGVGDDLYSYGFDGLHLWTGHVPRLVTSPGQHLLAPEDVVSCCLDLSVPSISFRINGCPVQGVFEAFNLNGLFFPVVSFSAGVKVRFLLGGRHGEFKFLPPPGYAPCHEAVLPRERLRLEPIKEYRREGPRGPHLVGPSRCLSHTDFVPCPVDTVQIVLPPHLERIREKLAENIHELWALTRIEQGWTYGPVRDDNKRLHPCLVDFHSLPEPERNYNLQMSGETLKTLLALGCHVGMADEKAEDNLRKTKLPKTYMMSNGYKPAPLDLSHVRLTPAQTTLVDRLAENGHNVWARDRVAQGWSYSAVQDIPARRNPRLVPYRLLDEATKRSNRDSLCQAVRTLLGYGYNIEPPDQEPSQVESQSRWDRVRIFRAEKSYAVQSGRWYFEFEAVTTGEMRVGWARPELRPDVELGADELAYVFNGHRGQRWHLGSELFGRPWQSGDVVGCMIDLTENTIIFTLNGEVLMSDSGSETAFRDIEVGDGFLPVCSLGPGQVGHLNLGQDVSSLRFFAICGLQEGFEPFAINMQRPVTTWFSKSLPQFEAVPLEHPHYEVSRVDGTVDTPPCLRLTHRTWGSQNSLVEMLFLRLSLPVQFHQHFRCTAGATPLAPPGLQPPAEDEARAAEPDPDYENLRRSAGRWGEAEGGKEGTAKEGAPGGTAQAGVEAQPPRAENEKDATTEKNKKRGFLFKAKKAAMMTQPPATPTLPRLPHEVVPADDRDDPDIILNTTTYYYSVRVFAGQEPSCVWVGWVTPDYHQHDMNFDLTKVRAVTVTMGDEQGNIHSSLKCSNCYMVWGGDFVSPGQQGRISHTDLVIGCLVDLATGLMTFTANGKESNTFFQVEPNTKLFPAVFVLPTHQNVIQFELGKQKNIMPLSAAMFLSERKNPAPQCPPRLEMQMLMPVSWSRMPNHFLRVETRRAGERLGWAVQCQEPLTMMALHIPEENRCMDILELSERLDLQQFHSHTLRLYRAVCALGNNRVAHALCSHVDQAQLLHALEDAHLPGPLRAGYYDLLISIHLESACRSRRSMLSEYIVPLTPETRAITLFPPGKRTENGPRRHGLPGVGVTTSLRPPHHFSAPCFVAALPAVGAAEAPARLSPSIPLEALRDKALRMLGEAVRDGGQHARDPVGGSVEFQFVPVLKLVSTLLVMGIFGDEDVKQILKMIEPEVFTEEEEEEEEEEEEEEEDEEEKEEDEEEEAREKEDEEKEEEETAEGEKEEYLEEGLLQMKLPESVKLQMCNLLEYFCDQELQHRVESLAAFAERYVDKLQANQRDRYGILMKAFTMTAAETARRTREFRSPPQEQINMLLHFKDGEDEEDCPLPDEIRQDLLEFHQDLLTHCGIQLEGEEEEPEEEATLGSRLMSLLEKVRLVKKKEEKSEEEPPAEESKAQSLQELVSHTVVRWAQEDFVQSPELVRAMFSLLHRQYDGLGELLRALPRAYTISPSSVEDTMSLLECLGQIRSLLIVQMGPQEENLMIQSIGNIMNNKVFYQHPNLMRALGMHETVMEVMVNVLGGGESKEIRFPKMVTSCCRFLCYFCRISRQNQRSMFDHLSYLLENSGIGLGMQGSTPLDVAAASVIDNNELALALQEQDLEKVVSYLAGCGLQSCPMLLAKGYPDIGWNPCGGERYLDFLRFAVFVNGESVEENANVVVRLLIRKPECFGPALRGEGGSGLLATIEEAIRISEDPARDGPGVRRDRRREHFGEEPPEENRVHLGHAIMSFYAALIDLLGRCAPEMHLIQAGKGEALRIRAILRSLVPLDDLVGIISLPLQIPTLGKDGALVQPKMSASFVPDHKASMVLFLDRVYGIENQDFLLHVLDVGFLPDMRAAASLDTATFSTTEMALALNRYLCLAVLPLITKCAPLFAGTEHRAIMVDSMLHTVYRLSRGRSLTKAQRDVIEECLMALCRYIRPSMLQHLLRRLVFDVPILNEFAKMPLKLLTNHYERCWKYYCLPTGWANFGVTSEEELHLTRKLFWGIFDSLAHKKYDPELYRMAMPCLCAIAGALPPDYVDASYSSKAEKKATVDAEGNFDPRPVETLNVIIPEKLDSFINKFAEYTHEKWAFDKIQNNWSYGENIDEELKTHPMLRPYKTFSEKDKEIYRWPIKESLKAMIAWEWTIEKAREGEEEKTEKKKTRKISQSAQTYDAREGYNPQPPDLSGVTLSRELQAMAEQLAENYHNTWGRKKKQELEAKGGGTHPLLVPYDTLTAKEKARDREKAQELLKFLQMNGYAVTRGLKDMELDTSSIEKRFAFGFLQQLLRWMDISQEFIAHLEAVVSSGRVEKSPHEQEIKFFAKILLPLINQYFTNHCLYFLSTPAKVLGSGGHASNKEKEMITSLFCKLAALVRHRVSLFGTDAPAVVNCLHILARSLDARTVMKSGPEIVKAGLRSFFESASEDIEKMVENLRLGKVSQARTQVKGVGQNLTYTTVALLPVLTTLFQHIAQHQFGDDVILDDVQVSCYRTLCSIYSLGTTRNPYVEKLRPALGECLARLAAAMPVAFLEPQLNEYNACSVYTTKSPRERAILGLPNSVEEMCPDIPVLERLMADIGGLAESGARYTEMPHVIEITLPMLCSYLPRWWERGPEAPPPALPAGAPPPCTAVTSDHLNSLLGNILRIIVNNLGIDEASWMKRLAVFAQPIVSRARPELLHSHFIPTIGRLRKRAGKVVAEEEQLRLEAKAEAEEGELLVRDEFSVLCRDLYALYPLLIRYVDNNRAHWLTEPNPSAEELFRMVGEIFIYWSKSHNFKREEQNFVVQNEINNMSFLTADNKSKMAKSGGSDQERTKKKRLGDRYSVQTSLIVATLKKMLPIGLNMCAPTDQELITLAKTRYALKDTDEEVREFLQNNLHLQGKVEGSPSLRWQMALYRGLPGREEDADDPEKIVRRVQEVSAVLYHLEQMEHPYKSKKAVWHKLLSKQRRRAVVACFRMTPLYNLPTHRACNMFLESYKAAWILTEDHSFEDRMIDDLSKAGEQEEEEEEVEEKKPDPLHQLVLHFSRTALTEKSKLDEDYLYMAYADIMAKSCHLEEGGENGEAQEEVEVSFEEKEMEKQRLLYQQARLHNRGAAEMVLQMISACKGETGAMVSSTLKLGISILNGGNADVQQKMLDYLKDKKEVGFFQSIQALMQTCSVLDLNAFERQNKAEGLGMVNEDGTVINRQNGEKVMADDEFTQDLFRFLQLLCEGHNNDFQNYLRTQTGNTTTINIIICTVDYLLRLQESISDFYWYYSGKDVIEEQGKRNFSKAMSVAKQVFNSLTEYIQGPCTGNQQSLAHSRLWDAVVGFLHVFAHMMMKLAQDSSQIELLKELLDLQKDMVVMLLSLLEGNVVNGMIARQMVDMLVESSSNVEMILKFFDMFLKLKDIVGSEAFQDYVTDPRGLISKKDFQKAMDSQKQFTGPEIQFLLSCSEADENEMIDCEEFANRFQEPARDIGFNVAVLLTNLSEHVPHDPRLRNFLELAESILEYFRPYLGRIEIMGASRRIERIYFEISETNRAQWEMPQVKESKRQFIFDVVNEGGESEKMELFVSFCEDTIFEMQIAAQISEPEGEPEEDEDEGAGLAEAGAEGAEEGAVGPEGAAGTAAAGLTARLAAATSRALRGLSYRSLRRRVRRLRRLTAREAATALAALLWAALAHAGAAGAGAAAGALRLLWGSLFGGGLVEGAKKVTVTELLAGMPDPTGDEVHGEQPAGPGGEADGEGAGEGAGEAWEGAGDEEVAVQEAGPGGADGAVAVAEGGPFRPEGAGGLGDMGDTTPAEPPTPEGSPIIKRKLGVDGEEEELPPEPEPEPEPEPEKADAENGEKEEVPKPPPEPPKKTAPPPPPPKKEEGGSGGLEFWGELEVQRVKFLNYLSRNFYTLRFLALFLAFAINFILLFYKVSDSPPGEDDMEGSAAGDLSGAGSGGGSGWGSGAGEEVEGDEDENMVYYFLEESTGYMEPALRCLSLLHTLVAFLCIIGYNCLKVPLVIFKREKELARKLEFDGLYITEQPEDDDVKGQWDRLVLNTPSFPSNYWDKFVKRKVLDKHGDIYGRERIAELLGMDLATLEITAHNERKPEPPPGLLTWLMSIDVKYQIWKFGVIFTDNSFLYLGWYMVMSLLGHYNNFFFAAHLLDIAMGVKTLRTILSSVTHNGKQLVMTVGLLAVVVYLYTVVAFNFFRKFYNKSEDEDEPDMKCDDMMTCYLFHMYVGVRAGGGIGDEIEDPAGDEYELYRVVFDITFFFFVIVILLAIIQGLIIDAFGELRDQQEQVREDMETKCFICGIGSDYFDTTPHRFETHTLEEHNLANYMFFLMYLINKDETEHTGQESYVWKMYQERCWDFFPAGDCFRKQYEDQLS
Procedure: (§1) Crude sarcoplasmic reticulum membrane vesicles were isolated from porcine longissimus dorsi muscle and porcine cardiac left ventricle tissue by differential centrifugation of homogenized tissue, as established previously ([65]). Skeletal heavy SR (HSR) vesicles, which are enriched with RyR1, were isolated by fractionation of crude skeletal SR vesicles using a discontinuous sucrose gradient, in accordance with our published work ([65]). All vesicles were flash-frozen and stored at −80 °C.
(§2) In 96-well plates, skeletal SR membranes (HSR, 1 mg/ml) and cardiac SR membranes (CSR, 3 mg/ml) were preincubated with 1% DMSO or hit compound for 30 min at 22 °C in a solution containing 150 mM KCl, 5 mM GSH, 1 μg/ml Aprotinin/Leupeptin, 1 mM EGTA, and 65 μM or 1.02 mM CaCl2 (as determined by MaxChelator to yield 30 nM or 30 μM of free Ca^2+, respectively), 0.1 mg/ml of BSA, and 20 mM K-PIPES (pH 7.0). Nonspecific [^3H]ryanodine binding to SR was assessed by addition of 40 μM nonradioactively labeled ryanodine. Maximal [^3H]ryanodine binding was assessed by addition of 5 mM adenylyl-imidodiphosphate (AMP-PNP), and in the case of CSR, 20 mM caffeine was added. These control samples were each loaded over four wells per plate. Binding of [^3H]ryanodine (7.5 and 10 nM for CSR and HSR, respectively) was determined following a 3 h incubation at 37 °C and filtration through grade GF/B glass microfiber filters (Brandel Inc) using a Brandel Harvester. In 4 ml of Ecolite scintillation cocktail (MP biomedicals), [^3H]ryanodine retained on the filter was counted using a Beckman LS6000 scintillation counter.

RyR2 = biological target: T3, RyR2 (Sus scrofa, UniProt A0A5G2R1W3); experiment: [3H]ryanodine binding to cardiac SR (CSR) vesicles; type: biochemical, pig
T3 construct: from tissue; host or cells: porcine cardiac left ventricle, crude SR vesicles
Procedure: as §1, §2

mouse RyR2 NTR = biological target: T4, mouse RyR2 NTR (Mus musculus, UniProt E9Q401, K30C/K441C, form not given); experiment: FLT-FRET dose-response with AC-NTR biosensor; type: binding
T4 sequence (E9Q401 1-547 K30C/K441C): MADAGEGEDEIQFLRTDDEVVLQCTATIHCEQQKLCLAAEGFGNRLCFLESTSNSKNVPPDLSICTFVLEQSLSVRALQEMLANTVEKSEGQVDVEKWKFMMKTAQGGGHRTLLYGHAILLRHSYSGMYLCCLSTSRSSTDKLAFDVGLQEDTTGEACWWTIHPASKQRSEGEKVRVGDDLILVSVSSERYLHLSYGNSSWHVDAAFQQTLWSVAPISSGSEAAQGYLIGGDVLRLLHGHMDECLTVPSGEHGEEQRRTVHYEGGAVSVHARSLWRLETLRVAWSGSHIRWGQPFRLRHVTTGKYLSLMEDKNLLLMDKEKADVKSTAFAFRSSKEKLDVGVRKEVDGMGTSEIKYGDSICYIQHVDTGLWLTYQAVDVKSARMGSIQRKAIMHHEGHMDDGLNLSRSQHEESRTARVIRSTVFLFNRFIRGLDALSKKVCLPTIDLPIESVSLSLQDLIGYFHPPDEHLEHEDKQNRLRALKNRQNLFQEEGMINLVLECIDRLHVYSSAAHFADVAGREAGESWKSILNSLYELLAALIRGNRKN
Text: The NTR of mouse RyR2 (residues 1–547) was cloned and expressed as previously described ([27]). The DNA construct contains a 6×His tag, a maltose-binding protein (MBP) tag, and a tobacco etch virus (TEV) protease cleavage site. The seven native solvent-exposed cysteine residues were substituted with alanine residues, and two constructs were engineered with Cys substitutions at surface residues R383 and K441 (in the B and C domains, respectively; termed BC) and at K30 and K441 (in the A and C domains, respectively; termed AC) for labeling with spectroscopic probes such as appropriate donor–acceptor fluorophores for FRET (for the purpose of this report, these are considered the WT forms of AC and BC). A variant of the BC construct corresponding to the disease-associated mutant (R420Q) was also prepared. For this site-directed mutagenesis work, we used the QuikChange (Stratagene) and Phusion High-Fidelity PCR (Thermo Fisher Scientific) kits. The WT-NTR, R420Q-NTR, AC- and BC-NTR, AC- and BC-R420Q-NTR protein constructs were expressed in Escherichia coli Rosetta (DE3) pLacI cells at 18 °C and purified with a protocol adapted from previously published work ([26]). An amylose column was first applied after the cells were lysed by ultrasonication. The protein in the elution was then cleaved using TEV protease. The cleaved crude protein went through the second amylose column to separate from the MBP and then followed by a Superdex S-200 size exclusion column in a buffer consisting of 250 mM KCl, 10 mM HEPES, and 14 mM β-mercaptoethanol (pH 7.4). The NTR protein (3 μM) was then incubated in 10 mM HEPES, 250 mM KCl (pH 7.4, 2 h, 21 °C) with the fluorescent probes Alexa Fluor 488 maleimide (AF488, donor; 40 μM) and Alexa Fluor 568 maleimide (AF568, acceptor; 60 μM). The maleimide of the dye reacts with the thiols the Cys residues engineered into NTR, forming a covalently labeled protein. The Alexa dyes were added last to the reaction mixture, from 10 mM DMSO stock solutions. This reaction is not selective to one site (K30C or K441C), and we anticipate that there is a mixed population with K30C or K441C labeled with either AF488 (donor) or AF568 (acceptor). We focused on maximizing the fraction containing donor–acceptor pairs, thus maximizing FRET efficiency and the precision for detecting a change in structure as an indication that a compound interacts with the NTR biosensor. The labeling efficiency was determined by comparing the molar concentration of the bound dye, determined from UV-Vis absorbance, to the protein concentration, determined from gel densitometry. Essentially complete labeling was confirmed from electrospray ionization mass spectrometry. CD spectra of the WT-NTR and mutant R420Q-NTR constructs before and after labeling were recorded using a JASCO J-815 CD spectrometer (JASCO), confirming similar folding (Fig. S1).
The 1536-well assay plates were prepared as described in our previous reports ([21]). The LOPAC (Sigma-Aldrich) collection received in 96-well plates was reformatted into 384-well polypropylene intermediate plates (Greiner Bio-One) using a multichannel liquid handler, BioMek FX (Beckman Coulter), then transferred to 384-well Echo Qualified source plates (Labcyte Inc). Assay plates were prepared as previously described ([20]). On screening days, these plates were thawed out and were loaded with labeled NTR (5 μl, 20 nM final concentration) using a Multidrop Combi automated sample dispenser.
HTS measurements were conducted in a prototype top-read FLT plate reader (FLT-PR, Fluorescence Innovations, Inc), which reads each 1536-well plate in ∼3 min ([63], [64]). AF488 donor fluorescence was excited with a 473 nm microchip laser from Concepts Research Corporation, and the emission signal was split into two channels by a dichroic mirror and acquired with 517 ± 10 nm (channel 1) and 535 ± 7 nm band-pass filters (channel 2) (Semrock). […]

α2-adrenergic receptors = tested on: α2-adrenergic receptors; design: method as in PMID 7969082; settings: cited from earlier work

For `CCCCNc1ccc(C(=O)OCCN(C)C)cc1` [tetracaine], the “steady-state [Ca2+]t-sys (RyR1 leak)” value (RyR1 [1]) was “full RyR inhibition” and the “electrically induced Ca2+ transient amplitude” value [2] was “significantly decreased”.
In the case of `C[C@H](N)[C@H](O)c1ccc(O)c(O)c1` [corbadrine, 4-[(1R,2S)-2-amino-1-hydroxypropyl]benzene-1,2-diol], the EC50 (RyR1 [3]; [Ca2+] 30 nM) is reported as 20 nM, the EC50 (RyR1 [3]; [Ca2+], 30 µM) is reported as 15300 nM and the “maximum inhibitory effect on [3H]ryanodine binding” value (RyR1 [3]; skeletal SR, 30 nM Ca2+) is reported as about 70%. The “effect on [3H]ryanodine binding to RyR1” value (RyR1 [3]; skeletal SR, 30 μM Ca2+) was “strongly increased”, the EC50 (RyR2) was 10 nM and the “effect on [3H]ryanodine binding to RyR2” value (RyR2; cardiac SR, 30 μM Ca2+) was “slight activation at high concentrations”. For the same compound, the ΔFLT (mouse RyR2 NTR; AC-NTR biosensor, 0 to 100 μM, CPNQ/corbadrine decrease FLT, FA/tacrolimus increase FLT) was “≈ 0.35 ns”, the “EC50 relative to CPNQ (fold higher)” value (mouse RyR2 NTR; FRET dose-response) was about 3 fold and the EC50 (mouse RyR2 NTR; read-out: EC50, FRET dose-response, AC-NTR biosensor, Hill fit, Table S4) was 3600 nM. For the same compound, the “binding affinity for α2-adrenergic receptors” value (α2-adrenergic receptors) was “very high binding affinity”.
